# “Also recorded” adds a separate entry of the source.
# What was measured:
# DNA damage = assay: Comet assay, DNA damage caused by irradiation of cells; format: cell-based
# cells = format: cell-based
# [1] = system: bone marrow of irradiated mice; assay: In vivo radiation protection assay, bone marrow colony forming units of irradiated mice; design: species or system C3H/HEJ mice; conditions: for Differential colony counts, GM / Differential colony counts, Granulocytes / Differential colony counts, Macrophages / Differential colony counts, Total CFU: 500 mg/kg sc -24 h and -15 min
# Method: (§1) FIG. 4. ON 01210.Na protects the bone marrow of irradiated mice. A. Mice were injected with 500 mg/kg of ON 01210.Na formulated in 1% Polysorbate 80/K-phosphate buffer or vehicle alone by sc injections minus 24 hrs and minus 15 minutes before 5.5 Gy of whole body ionizing radiation treatment. Whole blood was collected on the indicted days and WBC counts were performed following RBC lysis. The data is plotted as the average of three mice per group +/−SEM (N:3×3=9 plates). B. Pictures of representative plates. […] C. White blood cell counts. Whole blood was collected on the indicted days and WBC counts were performed following RBC lysis. The data is plotted as the average of 3 mice per group±SEM (N=3).
# Since survival of animals after radiation exposure depends largely on the protection of the hematopoietic system, the effect of ON 01210.Na treatment on hematopoietic cell survival was investigated using various schedules before radiation exposure. The radioprotection of hematopoietic cells by ON 01210.Na was studied in an in vivo assay using a sub lethal dose of radiation. C3H/HEJ mice were treated with ON 01210.Na following various schedules in order to determine the optimal dose and schedule of ON 01210.Na for maximum protection of the hematopoietic system in mice.
# as §1, with “A.” for “FIG. 4. ON 01210.Na protects the bone marrow of irradiated mice. A.”, “group+/−SEM” for “group +/−SEM”, “(N=3). Lineage specific protection was studied by identifying and tabulating three lineages, granulocytes, macrophages and granulocyte-macrophages (GM).” for “(N=3).”
# In order to determine the optimal schedule of ON 01210.Na treatment for maximum protection of the bone marrow, bone marrow protection of mice injected with a single dose of ON 01210.Na at minus 15 minutes or minus 4 hours was compared with mice injected with two doses described above. The most efficient protection of the bone marrow was found when the mice were injected at minus 24 hours and minus 15 minutes before radiation exposure. […] These experiments imply that a single injection just before exposure will protect and increase the recovery of bone marrow cells after radiation exposure.
compound,measurement,setting,value
"O=C([O-])c1ccc(/C=C/S(=O)(=O)Cc2ccc(Cl)cc2)cc1.[Na+] [ON 01210.Na, E-4-Carboxystyryl-4-chlorobenzylsulfone sodium salt]",DNA damage caused by irradiation (Comet assays),DNA damage,reduced the amount of DNA damage
same,cell cycle arrest,cells,did not cause cell cycle arrest
same,cytotoxicity,cells,not cytotoxic
same,"Differential colony counts, GM","[1]; 5.5 Gy IR, day 4",8
same,"Differential colony counts, Granulocytes","[1]; 5.5 Gy IR, day 4",9
same,"Differential colony counts, Macrophages","[1]; 5.5 Gy IR, day 4",4
same,"Differential colony counts, Total CFU","[1]; 5.5 Gy IR, day 4",21
same,"Differential colony counts, GM","[1]; 5.5 Gy IR, day 7",9
same,"Differential colony counts, Granulocytes","[1]; 5.5 Gy IR, day 7",13
same,"Differential colony counts, Macrophages","[1]; 5.5 Gy IR, day 7",2
same,"Differential colony counts, Total CFU","[1]; 5.5 Gy IR, day 7",24
same,"Differential colony counts, GM","[1]; 5.5 Gy IR, day 12",16
same,"Differential colony counts, Granulocytes","[1]; 5.5 Gy IR, day 12",16
same,"Differential colony counts, Macrophages","[1]; 5.5 Gy IR, day 12",5
same,"Differential colony counts, Total CFU","[1]; 5.5 Gy IR, day 12",37
same,"Differential colony counts, GM","[1]; 5.5 Gy IR, day 18",72
same,"Differential colony counts, Granulocytes","[1]; 5.5 Gy IR, day 18",58
same,"Differential colony counts, Macrophages","[1]; 5.5 Gy IR, day 18",16
same,"Differential colony counts, Total CFU","[1]; 5.5 Gy IR, day 18",146
same,"Differential colony counts, GM","[1]; No IR, day 4",111
same,"Differential colony counts, Granulocytes","[1]; No IR, day 4",27
same,"Differential colony counts, Macrophages","[1]; No IR, day 4",9
same,"Differential colony counts, Total CFU","[1]; No IR, day 4",147
same,"Differential colony counts, GM","[1]; No IR, day 7",120
same,"Differential colony counts, Granulocytes","[1]; No IR, day 7",18
same,"Differential colony counts, Macrophages","[1]; No IR, day 7",5
same,"Differential colony counts, Total CFU","[1]; No IR, day 7",143
same,"Differential colony counts, GM","[1]; No IR, day 12",116
same,"Differential colony counts, Granulocytes","[1]; No IR, day 12",64
same,"Differential colony counts, Macrophages","[1]; No IR, day 12",14
same,"Differential colony counts, Total CFU","[1]; No IR, day 12",194
same,"Differential colony counts, GM","[1]; No IR, day 18",119
same,"Differential colony counts, Granulocytes","[1]; No IR, day 18",39
same,"Differential colony counts, Macrophages","[1]; No IR, day 18",39
same,"Differential colony counts, Total CFU","[1]; No IR, day 18",197
same,protection and recovery of the bone marrow,"[1]; 500 mg/kg sc -24 h and -15 min before 5.5 Gy whole body IR, sodium salt",significantly increased the recovery of the bone marrow; also recorded: significantly protected
same,Percent Colony Forming Units,"[1]; administration -15 min relative to IR exposure, day 4",9%
same,Percent Colony Forming Units,"[1]; administration -15 min relative to IR exposure, day 7",13%
same,Percent Colony Forming Units,"[1]; administration -15 min relative to IR exposure, day 12",17%
same,Percent Colony Forming Units,"[1]; administration -15 min relative to IR exposure, day 18",80%
same,Percent Colony Forming Units,"[1]; administration -4 h relative to IR exposure, day 4",6%
same,Percent Colony Forming Units,"[1]; administration -4 h relative to IR exposure, day 7",10%
same,Percent Colony Forming Units,"[1]; administration -4 h relative to IR exposure, day 12",12%
same,Percent Colony Forming Units,"[1]; administration -4 h relative to IR exposure, day 18",51%
same,Percent Colony Forming Units,"[1]; administration -24 h and -15 min relative to IR exposure, day 4",14%
same,Percent Colony Forming Units,"[1]; administration -24 h and -15 min relative to IR exposure, day 7",16%
same,Percent Colony Forming Units,"[1]; administration -24 h and -15 min relative to IR exposure, day 12",25%
same,Percent Colony Forming Units,"[1]; administration -24 h and -15 min relative to IR exposure, day 18",100%
same,macrophage colony number,[1]; mice injected without radiation exposure,slight increase
same,recovery of bone marrow versus vehicle,"[1]; single injection 4 hours prior to radiation exposure, sodium salt",did not show a significant advantage; also recorded: not significantly increased

# — US20110250184A1, “METHODS FOR DETERMINING EFFICACY OF A THERAPEUTIC REGIMEN AGAINST DELETERIOUS EFFECTS OF CYTOTOXIC AGENTS IN HUMAN” (priority 2008, published 2011)
